± gives the standard deviation of the averaged measurements.
Assays:
VINORELBINE = compound: CCC1=C[C@@H]2CN(C1)Cc1c([nH]c3ccccc13)[C@@](C(=O)OC)(c1cc3c(cc1OC)N(C)[C@H]1[C@@](O)(C(=O)OC)[C@H](OC(C)=O)[C@]4(CC)C=CCN5CC[C@]31[C@@H]54)C2 [VINORELBINE]; assay: surviving fraction relative to DMSO-only wells; higher = less growth inhibition; conditions: exposure time: 5 days
Outline: (§1)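 In 384-well plates, 250–500 log-phase tumour cells per well were given 24 hours before five days of continuous exposure to inhibitors at 0.5, 1, 5, 10, 50, 100, 500 and 1000 nM. Surviving fraction is luminescence from CellTiter-Glo, normalised to the median of wells containing DMSO alone. Reading took place after 10 minutes at room temperature.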

ETOPOSIDE = compound: COc1cc([C@@H]2c3cc4c(cc3[C@@H](O[C@@H]3O[C@@H]5CO[C@@H](C)O[C@H]5[C@H](O)[C@H]3O)[C@H]3COC(=O)[C@H]23)OCO4)cc(OC)c1O [ETOPOSIDE]; assay: as above; conditions: exposure time: 5 days
Outline: as §1

| Test System | surviving fraction (VINORELBINE; 0.5 nM) | surviving fraction (VINORELBINE; 1 nM) | surviving fraction (VINORELBINE; 5 nM) | surviving fraction (VINORELBINE; 10 nM) | surviving fraction (VINORELBINE; 50 nM) | surviving fraction (VINORELBINE; 100 nM) | surviving fraction (VINORELBINE; 500 nM) | surviving fraction (VINORELBINE; 1000 nM) | surviving fraction (ETOPOSIDE; 0.5 nM) | surviving fraction (ETOPOSIDE; 1 nM) | surviving fraction (ETOPOSIDE; 5 nM) | surviving fraction (ETOPOSIDE; 10 nM) | surviving fraction (ETOPOSIDE; 50 nM) | surviving fraction (ETOPOSIDE; 100 nM) | surviving fraction (ETOPOSIDE; 500 nM) | surviving fraction (ETOPOSIDE; 1000 nM) |
| --- | --- | --- | --- | --- | --- | --- | --- | --- | --- | --- | --- | --- | --- | --- | --- | --- |
| H23 LUNG | 1.03 ± 0.046 | 0.9937 ± 0.0096 | 1.04 ± 0.039 | 0.84 ± 0.014 | 0.205 ± 0.015 | 0.173 ± 0.011 | 0.22 ± 0.002 | 0.1743 ± 0.0015 | 0.988 ± 0.067 | 1.07 ± 0.053 | 1.01 ± 0.033 | 1.04 ± 0.056 | 1.11 ± 0.03 | 1.07 ± 0.04 | 0.565 ± 0.019 | 0.509 ± 0.02 |
| MDAMB231 BREAST | 0.976 ± 0.035 | 0.998 ± 0.02 | 0.904 ± 0.027 | 0.681 ± 0.027 | 0.238 ± 0.008 | 0.244 ± 0.0099 | 0.189 ± 0.0019 | 0.172 ± 0.009 | 0.987 ± 0.022 | 1.03 ± 0.056 | 1.02 ± 0.018 | 0.995 ± 0.018 | 1.04 ± 0.029 | 1.03 ± 0.036 | 0.633 ± 0.017 | 0.454 ± 0.043 |
| HU09 BONE | 1.09 ± 0.035 | 1.02 ± 0.11 | 0.981 ± 0.1 | 0.558 ± 0.071 | 0.124 ± 0.015 | 0.0583 ± 0.0064 | 0.0547 ± 0.004 | 0.0747 ± 0.0045 | 0.957 ± 0.075 | 0.977 ± 0.09 | 1.12 ± 0.099 | 1 ± 0.023 | 0.972 ± 0.12 | 0.803 ± 0.087 | 0.146 ± 0.0087 | 0.0523 ± 0.0064 |
| MCF7 BREAST | 0.932 ± 0.027 | 0.914 ± 0.025 | 0.861 ± 0.058 | 0.817 ± 0.022 | 0.466 ± 0.017 | 0.428 ± 0.027 | 0.357 ± 0.0083 | 0.221 ± 0.018 | 0.9 ± 0.049 | 0.88 ± 0.045 | 0.867 ± 0.079 | 0.9 ± 0.037 | 0.951 ± 0.07 | 0.935 ± 0.014 | 0.702 ± 0.051 | 0.644 ± 0.041 |
| SAOS2 BONE | 1.12 ± 0.014 | 1.18 ± 0.066 | 1.07 ± 0.06 | 0.812 ± 0.038 | 0.155 ± 0.0063 | 0.0997 ± 0.0029 | 0.11 ± 0.0081 | 0.104 ± 0.032 | 1.03 ± 0.027 | 1.06 ± 0.028 | 1.17 ± 0.02 | 1.16 ± 0.049 | 1.13 ± 0.035 | 1.147 ± 0.011 | 0.783 ± 0.04 | 0.439 ± 0.022 |
| COLO320DM LARGE INTESTINE | 1 ± 0.036 | 1.08 ± 0.059 | 1.06 ± 0.12 | 1.12 ± 0.088 | 1.09 ± 0.047 | 0.9883 ± 0.006 | 0.534 ± 0.022 | 0.293 ± 0.012 | 1.16 ± 0.034 | 1.05 ± 0.058 | 1.15 ± 0.044 | 1.05 ± 0.093 | 1.14 ± 0.046 | 1.05 ± 0.049 | 1.04 ± 0.03 | 0.962 ± 0.042 |
| HOSMNG BONE | 0.938 ± 0.14 | 0.956 ± 0.1 | 0.963 ± 0.11 | 0.955 ± 0.15 | 0.694 ± 0.1 | 0.415 ± 0.028 | 0.112 ± 0.018 | 0.0593 ± 0.01 | 0.958 ± 0.1 | 0.984 ± 0.056 | 0.976 ± 0.024 | 1.01 ± 0.023 | 1.02 ± 0.021 | 1.04 ± 0.018 | 0.956 ± 0.079 | 0.78 ± 0.021 |
| CASKI CERVIX | 0.919 ± 0.041 | 0.911 ± 0.046 | 0.702 ± 0.014 | 0.188 ± 0.027 | 0.0597 ± 0.0076 | 0.087 ± 0.005 | 0.106 ± 0.012 | 0.1 ± 0.0083 | 0.904 ± 0.037 | 0.934 ± 0.061 | 0.99 ± 0.035 | 0.939 ± 0.014 | 0.876 ± 0.051 | 0.86 ± 0.0087 | 0.303 ± 0.019 | 0.182 ± 0.0059 |
| HOS BONE | 1.05 ± 0.05 | 1.01 ± 0.011 | 1.05 ± 0.034 | 0.967 ± 0.031 | 0.13 ± 0.012 | 0.0783 ± 0.0015 | 0.03 ± 0.0035 | 0.033 ± 0.0027 | 1.01 ± 0.011 | 1.02 ± 0.033 | 1.02 ± 0.018 | 1.019 ± 0.0095 | 0.978 ± 0.01 | 0.707 ± 0.033 | 0.0687 ± 0.0011 | 0.067 ± 0.0056 |
| HS578T BREAST | 1.13 ± 0.09 | 0.976 ± 0.17 | 0.423 ± 0.021 | 0.276 ± 0.027 | 0.153 ± 0.019 | 0.138 ± 0.004 | 0.173 ± 0.011 | 0.185 ± 0.014 | 0.878 ± 0.18 | 0.849 ± 0.12 | 0.831 ± 0.2 | 0.789 ± 0.079 | 0.95 ± 0.11 | 0.751 ± 0.064 | 0.59 ± 0.064 | 0.372 ± 0.029 |
